The Ki is the dissociation constant of the complex between target and ligand, obtained from inhibition or displacement. A low value points to higher affinity.

The structures appear in SMILES notation.

One experiment has as its target T1, FKBP51 (Homo sapiens, UniProt Q13451).
T1 sequence (Q13451 42-130 limits assumed): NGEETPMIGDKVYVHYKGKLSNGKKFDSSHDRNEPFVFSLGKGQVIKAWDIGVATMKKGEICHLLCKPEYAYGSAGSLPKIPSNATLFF
Put plainly: Fluorescence polarization (FP) assay, binding to the FK506-binding domain of FKBP51. The conditions noted are these: FK506-binding domain of FKBP51 (FKBP51FK1), competition with fluorescent ligand 2b. In outline: (§1)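 Competitive FP with fluorescent ligand 2b at 20 nM (2× concentration) and FK1 domain at 280 nM (FKBP51) or 400 nM (FKBP52) in 20 mM HEPES pH 8, 0.01% Triton-X100. Anisotropy read after 30 min at room temperature (ex 485, em 535 nm), in duplicate; IC50 by four-parameter fit, Ki via Wang competitive equation.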
Background: Polarisation of emitted light reports the rotation of a fluorescent probe.

A further experiment has as its target T2, FKBP52 (Homo sapiens, UniProt Q02790).
T2 sequence (Q02790 50-138 limits assumed): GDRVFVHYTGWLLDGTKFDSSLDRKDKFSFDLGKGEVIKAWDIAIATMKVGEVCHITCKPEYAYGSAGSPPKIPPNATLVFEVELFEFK
The experiment is described as follows: Fluorescence polarization (FP) assay, binding to the FK506-binding domain of FKBP52. The settings on record: FK506-binding domain of FKBP52 (FKBP52FK1), competition with fluorescent ligand 2b. Summed up:
as §1

On to `COCO[C@H]1CNC(=O)[C@@H]2CCC[C@H]1N2S(=O)(=O)c1cc(Cl)cc(Cl)c1` [Compound H2.2, (1S,5S,6R)-10-((3,5-dichlorophenyl)sulfonyl)-5-(methoxymethoxy)-3,10-diazabicyclo[4.3.1]decan-2-one], for which the Ki on FKBP51 and at FKBP52 was 500 to 1000 nM throughout.

In the case of `COc1ccc(OCCN2C[C@H](O)[C@H]3CCC[C@@H](C2=O)N3S(=O)(=O)c2cc(Cl)cc(Cl)c2)cc1OC` [Compound H2.3, (1S,5S,6R)-10-((3,5-dichlorophenyl)sulfonyl)-3-(2-(3,4-dimethoxyphenoxy)ethyl)-5-hydroxy-3,10-diazabicyclo[4.3.1]decan-2-one], the Ki on FKBP51 is no more than 100 nM; at FKBP52, 100 to 500 nM.

For `C=C[C@@H]1CN(CCCCOC)C(=O)[C@@H]2CCC[C@H]1N2S(=O)(=O)c1cc(Cl)cc(Cl)c1` [Compound J3, (1S,5R,6R)-10-((3,5-dichlorophenyl)sulfonyl)-3-(4-methoxybutyl)-5-vinyl-3,10-diazabicyclo[4.3.1]decan-2-one], the Ki on FKBP51 and at FKBP52 was 500 to 1000 nM each time.

For the molecule `O=C1[C@@H]2CCC[C@H]([C@H](CO)CN1CCCO)N2S(=O)(=O)c1cc(Cl)cc(Cl)c1` [Compound J5, (1S,5R,6R)-10-((3,5-dichlorophenyl)sulfonyl)-5-(hydroxymethyl)-3-(3-hydroxypropyl)-3,10-diazabicyclo[4.3.1]decan-2-one], the Ki on FKBP51 and at FKBP52 was 500 to 1000 nM each time.

On to `COCCCCN1C[C@@H](CO)[C@H]2CCC[C@@H](C1=O)N2S(=O)(=O)c1cc(Cl)cc(Cl)c1` [Compound J7, (1S,5R,6R)-10-((3,5-dichlorophenyl)sulfonyl)-5-(hydroxymethyl)-3-(4-methoxybutyl)-3,10-diazabicyclo[4.3.1]decan-2-one], for which the Ki at FKBP51 and at FKBP52 was 500 to 1000 nM each time.

Consider `O=C1[C@@H]2CCC[C@H]([C@H](CO)CN1Cc1ccccn1)N2S(=O)(=O)c1cc(Cl)cc(Cl)c1` [Compound J8, (1S,5R,6R)-10-((3,5-dichlorophenyl)sulfonyl)-5-(hydroxymethyl)-3-(pyridin-2-ylmethyl)-3,10-diazabicyclo[4.3.1]decan-2-one], for which the inhibitory constant (Ki) at FKBP51 and on FKBP52 was no more than 100 nM throughout.

In the case of `C=C[C@@H]1CN(CC(=O)OCC)C(=O)[C@@H]2CCC[C@H]1N2S(=O)(=O)c1cc(Cl)cc(Cl)c1` [Compound J9, ethyl 2-((1S,5R,6R)-10-((3,5-dichlorophenyl)sulfonyl)-2-oxo-5-vinyl-3,10-diazabicyclo[4.3.1]decan-3-yl)acetate], the Ki on FKBP51 and on FKBP52 was 100 to 500 nM throughout.

Take `C=C[C@@H]1CN(Cc2ccncn2)C(=O)[C@@H]2CCC[C@H]1N2S(=O)(=O)c1cc(Cl)cc(Cl)c1` [Compound J15, (1S,5R,6R)-10-((3,5-dichlorophenyl)sulfonyl)-3-(pyrimidin-4-ylmethyl)-5-vinyl-3,10-diazabicyclo[4.3.1]decan-2-one]: the Ki at FKBP51 and on FKBP52 was 100 to 500 nM throughout.

Take `C=C[C@@H]1CN(Cc2ccco2)C(=O)[C@@H]2CCC[C@H]1N2S(=O)(=O)c1cc(Cl)cc(Cl)c1` [Compound J17, (1S,5R,6R)-10-((3,5-dichlorophenyl)sulfonyl)-3-(furan-2-ylmethyl)-5-vinyl-3,10-diazabicyclo[4.3.1]decan-2-one]: the inhibitory constant (Ki) on FKBP51 and at FKBP52 was 1000 to 5000 nM each time.

In the case of `C=C[C@@H]1CN(Cc2ccccn2)C(=O)[C@@H]2CCC[C@H]1N2S(=O)(=O)c1ccc2[nH]c(=O)sc2c1` [Compound K4, 6-(((1S,5R,6R)-2-oxo-3-(pyridin-2-ylmethyl)-5-vinyl-3,10-diazabicyclo[4.3.1]decan-10-yl)sulfonyl)benzo[d]thiazol-2(3H)-one], the inhibition constant (Ki) on FKBP51 and at FKBP52 was no more than 100 nM in each case.

As to `C=C[C@@H]1CN(Cc2ccccn2)C(=O)[C@@H]2CCC[C@H]1N2S(=O)(=O)c1cccc(C#N)c1` [Compound K7, 3-(((1S,5R,6R)-2-oxo-3-(pyridin-2-ylmethyl)-5-vinyl-3,10-diazabicyclo[4.3.1]decan-10-yl)sulfonyl)benzonitrile], the inhibitory constant (Ki) at FKBP51 and at FKBP52 was 100 to 500 nM each time.

The values are drawn from US9914732B2, “Diazabicyclo[4.3.1]decane derivatives for treatment of psychiatric disorders” (Max-Planck-Gesellschaft zur Forderung der Wissenschaften …, priority 2014, dated 2018).
